The test system of assay [1] is human colon cancer cell line HCT-15. The experiment in a line: Comparison of antitumor activity in nude mice implanted with HCT-15 between cB273 and conatumumab. It is filed as in vivo. The settings on record: day 30 after the implantation.
Procedure: 1×10^7 cells of a human colon cancer cell line HCT-15 (purchased from ATCC) were implanted subcutaneously in the axillary region of nude mice. […] In the same manner as described above, the major axis and the minor axis of the implanted tumor were measured, and the tumor volume was calculated.
Assay [2] deals with human lung cancer cell line NCI-H1975. The experiment in a line: Comparison of antitumor activity in nude mice implanted with NCI-H1975 between cB273 and conatumumab. The settings on record: day 32 after the implantation. In kind it is in vivo.
Procedure: 3×10^6 cells of a human lung cancer cell line NCI-H1975 (purchased from ATCC) were implanted subcutaneously in the axillary region of nude mice. […] In the same manner as described above, the major axis and the minor axis of the implanted tumor were measured, and the tumor volume was calculated.
The test system of assay [3] is human colon cancer cell line HCT-15. The assay can be described thus: Antitumor activity in combination with 5-FU in nude mice implanted with HCT-15, comparison with conatumumab. In kind it is in vivo. The settings on record: day 28; antibody 3 mg/kg tail vein days 7, 14, 21; 5-FU 160 mg/kg tail vein day 7.
The test system of assay [4] is human non-small cell lung cancer cell line NCI-H1975. The settings on record: day 32; antibody 3 mg/kg tail vein days 11, 18, 25; paclitaxel 6.25 mg/kg tail vein days 11-14.
Procedure: The major axis and the minor axis of the implanted tumor were measured twice a week using an electronic digital caliper (manufactured by Mitutoyo Corporation), and the tumor volume was calculated according to the following calculation formula. Tumor volume (mm^3)=1/2×(Minor axis)^2 (mm)×(Major axis)^2 (mm)
3×10^6 cells of a human non-small cell lung cancer cell line NCI-H1975 (purchased from ATCC) were implanted subcutaneously in the axillary region of nude mice. […] Paclitaxel was administered to tumor-bearing mice through the tail vein on days 11, 12, 13, and 14 after the implantation at a dose of 6.25 mg/kg. The experiment was carried out at n=6. In the same manner as described above, the major axis and the minor axis of the implanted tumor were measured, and the tumor volume was calculated.
Assay [5] has as its system human melanoma cell line A375. The experiment in a line: Antitumor activity in nude mice implanted with A375 (in combination with vinblastine). It is filed as in vivo. The settings on record: day 46; cB273 10 mg/kg tail vein days 10, 17, 24; vinblastine 10 mg/kg tail vein day 10.
Assay [6] concerns human colon cancer cell line HCT-116. The assay can be described thus: Antitumor activity in nude mice implanted with HCT-116 (in combination with CPT-11). It is filed as in vivo. The settings on record: day 28; cB273 10 mg/kg tail vein day 7; CPT-11 65 mg/kg ip days 7, 10, 14. The method, then: CPT-11 was intraperitoneally administered at a dose of 65 mg/kg on days 7, 10, and 14 after the implantation (n=10).

The subject of assay [7] is human colon cancer cell line HCT-15. The experiment in a line: Antitumor activity in nude mice implanted with HCT-15 (in combination with CPT-11). In kind it is in vivo. The settings on record: day 31; cB273 10 mg/kg tail vein day 7; CPT-11 80 mg/kg ip days 7, 10, 14. The method, then: CPT-11 was intraperitoneally administered at a dose of 80 mg/kg on days 7, 10, and 14 after the implantation (n=10).

For assay [8], the system named is human colon cancer cell line DLD-1. The experiment in a line: Antitumor activity in nude mice implanted with DLD-1 (in combination with CPT-11). It is filed as in vivo. The settings on record: day 55; cB273 10 mg/kg ip day 35; CPT-11 80 mg/kg ip days 35, 40, 43. The method, then:
CPT-11 was intraperitoneally administered at a dose of 80 mg/kg on days 35, 40, and 43 after the implantation (n=10).

For assay [9], the system named is human T-lymphoma cell line Jurkat. The assay can be described thus: In vitro cytocidal activity of mouse antibody B273, Jurkat. It is filed as cell-based. The settings on record: 10,000 to 0.01 ng/ml with goat anti-mouse IgG Fc, 24 hours. The method, then:
(§1) Each of a human T-lymphoma cell line Jurkat and a human glioblastoma cell line U-87MG was prepared at 4.4×10^4 cells/ml in RPMI 1640 medium containing 10% FBS or MEM (Minimum Essential Medium) medium containing 10% FBS and added to a white clear bottom 96-well microplate (manufactured by Corning Incorporated) at […], and cultured overnight under the conditions of 37° C. and 5% CO2. The mouse B273 antibody or the mouse IgG1 antibody (manufactured by R&D Systems, Inc.) was mixed with the same concentration of AffiniPure goat anti-mouse IgG Fc specific (manufactured by Jackson ImmunoResearch Laboratories, Inc., #115-005-071), and the resulting mixture was added at 5 μl/well such that the final concentration of the mouse B273 antibody or the mouse IgG1 antibody was 10,000 to 0.01 ng/ml, and the cells were cultured under the conditions of 37° C. and 5% CO2 for 24 hours. The amount of ATP derived from viable cells in each well was measured by a luminometer (manufactured by Perkin Elmer, Inc.) using a CellTiter-Glo® luminescent cell viability assay kit (manufactured by Promega Corporation, #G7571) according to the attached protocol. The cytocidal activity was evaluated by taking the value obtained from the well to which the medium was added in place of the antibody solution as 100% (FIG. 1). In each graph, the cell viability is expressed as a mean±standard deviation (n=3).

For assay [10], the system named is human glioblastoma cell line U-87MG. The assay can be described thus: In vitro cytocidal activity of mouse antibody B273, U-87MG. It is filed as cell-based. The settings on record: 10,000 to 0.01 ng/ml with goat anti-mouse IgG Fc, 24 hours. The method, then:
as §1

For conatumumab [reference compound], the “tumor growth inhibitory rate” value worked out at 27.4% in assay [1] (3 mg/kg tail vein days 6, 13, 20); 26.9% in [1] (10 mg/kg tail vein days 6, 13, 20); 20.3% in assay [1] (30 mg/kg tail vein days 6, 13, 20); 13.5% in assay [2] (3 mg/kg tail vein days 12, 19, 26); 12.6% in [2] (10 mg/kg tail vein days 12, 19, 26); 27% in assay [3]. Moreover, the “tumor growth inhibitory rate” value in assay [4] worked out at 40%.

Turning to `CC[C@]1(O)C[C@@H]2CN(CCc3c([nH]c4ccccc34)[C@@](C(=O)OC)(c3cc4c(cc3OC)N(C)[C@H]3[C@@](O)(C(=O)OC)[C@H](OC(C)=O)[C@]5(CC)C=CCN6CC[C@]43[C@@H]65)C2)C1` [vinblastine, reference compound], the “tumor growth inhibitory rate” value in [5] is recorded as 43.6%.

For `CCc1c2c(nc3ccc(OC(=O)N4CCC(N5CCCCC5)CC4)cc13)-c1cc3c(c(=O)n1C2)COC(=O)[C@]3(O)CC` [CPT-11, irinotecan (CPT-11), reference compound], the “tumor growth inhibitory rate” value in assay [6] was 89.8%; in [7] it was 83.5%; in assay [8] it was 29.5%.

`CC(=O)O[C@H]1C(=O)[C@@]2(C)[C@H]([C@H](OC(=O)c3ccccc3)[C@]3(O)C[C@H](OC(=O)[C@H](O)[C@@H](NC(=O)c4ccccc4)c4ccccc4)C(C)=C1C3(C)C)[C@]1(OC(C)=O)CO[C@@H]1C[C@@H]2O` [paclitaxel]: the “tumor growth inhibitory rate” value in [4] worked out at 49%.

For the molecule `O=c1[nH]cc(F)c(=O)[nH]1` [5-FU], in [3], the “tumor growth inhibitory rate” value is 54%.

B1: B273: mouse anti-human DR5 monoclonal antibody from hybridoma B273; heavy chain SEQ ID NO: 8, light chain SEQ ID NO: 10; IgG1, κ (antibody, listed as Mus musculus)
heavy: MGWSCIFLFLLSVTVGVFSEVQLQQSGPELVKPGASVKISCKASGYSFIGYFMNWMKQSHGKSLEWIGRFNPYNGDTFYNQKFKGKATLTVDKSSTTAHMELLSLTSEDSAVYFCGRSAYYFDSGGYFDYWGQGTTLTVSSAKTTPPSVYPLAPGSAAQTNSMVTLGCLVKGYFPEPVTVTWNSGSLSSGVHTFPAVLQSDLYTLSSSVTVPSSTWPSETVTCNVAHPASSTKVDKKIVPRDCGCKPCICTVPEVSSVFIFPPKPKDVLTITLTPKVTCVVVDISKDDPEVQFSWFVDDVEVHTAQTQPREEQFNSTFRSVSELPIMHQDWLNGKEFKCRVNSAAFPAPIEKTISKTKGRPKAPQVYTIPPPKEQMAKDKVSLTCMITDFFPEDITVEWQWNGQPAENYKNTQPIMDTDGSYFVYSKLNVQKSNWEAGNTFTCSVLHEGLHNHHTEKSLSHSPGK
light: MKLPVRLLVLMFWIPASSSDVVMTQTPLSLPVSLGDQASISCRSSQSLVHSNGNTYLHWYLQKPGQSPKLLIYKVSNRFSGVPDRFSGSGSGTDFTLKISRVEAEDLGIYFCSQSTHVPWTFGGGTKLEIKRADAAPTVSIFPPSSEQLTSGGASVVCFLNNFYPKDINVKWKIDGSERQNGVLNSWTDQDSKDSTYSMSSTLTLTKDEYERHNSYTCEATHKTSTSPIVKSFNRNEC
For B1, the “cytocidal effect (cell viability, ATP)” value in assay [9] and in [10] was “exhibits a cytocidal effect on both cell lines in an antibody concentration-dependent manner” throughout.

These data come from US9856321B2, “Anti-DR5 antibodies, polynucleotides and methods” (Daiichi Sankyo Company, Limited, priority 2010, dated 2018).
